Experimental data published in patent US20250228801A1, “USE OF Galectin-1 INHIBITOR IN PREPARATION OF DRUG FOR TREATING PULMONARY FIBROSIS” (Institute of Basic Medical Sciences, CAMS, priority 2024, published 2025).

What was measured:
silicosis mice [1] = assay: Pathological staining (HE, Masson) of lung tissue of silicosis mice; assay type: in vivo, mouse; settings: OTX008 5 mg/kg i.p.
From the text: (§1) Male C57BL/6J mice (aged 8 weeks and weighing 25-30 g) were selected and housed in an SPF grade laboratory animal room, and the model of silicosis was constructed by one-time intratracheal instillation of silica (Si); the mice were divided into four groups (n=9): • 1) PBS+vehicle group: tracheal infusion of PBS, intraperitoneal injection of vehicle (10% DMSO+90% corn oil) 2 weeks later, once every other day for 3 weeks; • 2) PBS+OTX008 group: PBS was given by tracheal infusion, and 2 weeks later, OTX008 (5 mg/kg) was given by intraperitoneal injection, once every other day for 3 weeks; • 3) Si+vehicle group: Silica suspension (300 mg/mL, 40 μL) was given tracheal infusion, and vehicle (10% DMSO+90% corn oil) was given intraperitoneal injection 2 weeks later, once every other day for 3 weeks; and • 4) Si+OTX008 group: Silica suspension (300 mg/mL, 40 μL) was given tracheal infusion, and OTX008 (5 mg/kg) was given intraperitoneal injection 2 weeks later, once every other day for 3 weeks.
The left lung was fixed in 4% paraformaldehyde for 72 h, dehydrated, paraffin-embedded, sectioned (to 5 μm), and subjected to HE staining and Masson staining, respectively. The HE staining was conducted to calculate the inflammation score based on Szapiel's score. The scoring method included no inflammation (grade 0), mild (grade 1), moderate (grade 2), and severe (grade 3); Masson staining was conducted to evaluate the degree of fibrosis based on the King score. Specifically, different silicosis nodules were evaluated for fibrosis degree according to King's method, with levels ranging from 0 to 5. Each silicosis nodule was assigned a corresponding fibrosis damage score, which was calculated as the fibrosis level score (0-5) multiplied by its percentage of the total area of the tissue section. The sections were scanned, photographed and counted by a 3D HISTECH digital slide scanner.

[2] = tested on: inflammatory factors IL-1β and IL-6; assay: Inflammatory factors in silicosis mice (qPCR of lung tissue, ELISA of BALF); assay type: in vivo, mouse; settings: OTX008 5 mg/kg i.p.
From the text: as §1
(§2) All mice were sacrificed after the administration, and the corresponding samples were collected for detection.
(§3) Concentrations of inflammatory factors IL-1β and IL-6 as well as Galectin-1 in mouse BALF were detected by using ELISA kits.
(§4) Lung tissue RNA of all mice was extracted; cDNA was obtained by using a reverse transcription kit (KR103, Tiangen Biotechnology, Beijing, China); qPCR was conducted by using a SYBR Green I Q-PCR Kit (TransGen Biotech, Beijing China); data collection and analysis were conducted by Bio-Rad IQ5 system.

silicosis mice [3] = assay: Pulmonary function test in silicosis mouse model; assay type: in vivo; settings: OTX008 5 mg/kg i.p.
From the text: as §1
Anesthetized mice were fixed on an experimental table, and mouse lung function was detected by a pulmonary function testing system (DSI Buxco, USA). Before experiment, the mouse was anesthetized by intraperitoneal injection of 0.4 mL/100 g 2% pentobarbital, tracheotomy was performed, a trachea cannula was inserted, and a ventilator was connected. Next, FRC, PV, FV, and RC were automatically tested by a PET system. Indicators closely related to lung function changes in silicosis for statistical analysis, including lung volume indicators such as IC, and pulmonary ventilation function tests such as RI, Cdyn, and Cchord.

[4] = tested on: fibrosis factors Fn-1 and Col-I, hydroxyproline; assay: Fibrosis factors (qPCR) and HYP content in lung tissue of silicosis mice; assay type: in vivo, mouse; settings: OTX008 5 mg/kg i.p.
From the text: as §1, §2, §4
30 mg of mouse lung tissue was detected using an HYP kit (NBP2-59747, Novus Biologicals, Littleton, CO, USA).

Galectin-1 = Galectin-1 levels in silicosis mice (qPCR of lung tissue, ELISA of BALF); assay type: in vivo, mouse
From the text: as §1, §2, §3, §4

CN(C)CCNC(=O)COc1c2cccc1Cc1cccc(c1OCC(=O)NCCN(C)C)Cc1cccc(c1OCC(=O)NCCN(C)C)Cc1cccc(c1OCC(=O)NCCN(C)C)C2 [OTX008]
decreased: concentration of IL-1β in alveolar lavage fluid ([2]; ELISA, FIG. 4C) | concentration of IL-6 in alveolar lavage fluid ([2]; ELISA, FIG. 4D) | transcription level of Il-1β in lung tissue ([2]; qPCR, FIG. 4A) | transcription level of Il-6 in lung tissue ([2]; qPCR, FIG. 4B) | collagen-specific amino acid HYP in lung tissue ([4]; HYP kit, FIG. 6C) | transcription level of Col-I in lung tissue ([4]; qPCR, FIG. 6A) | transcription level of Fn-1 in lung tissue ([4]; qPCR, FIG. 6B) | Galectin-1 translation level in alveolar lavage fluid (Galectin-1; OTX008 5 mg/kg i.p., ELISA) | Lgals1 transcription level in lung tissue (Galectin-1; OTX008 5 mg/kg i.p., qPCR)
improved significantly: lung function: inspiratory capacity (IC) (silicosis mice [3]; FIG. 3A) | lung function: inspiratory resistance (RI) (silicosis mice [3]; FIG. 3B) | lung function: dynamic compliance (Cdyn) (silicosis mice [3]; FIG. 3C) | lung function: quasi-static compliance (Cchord) (silicosis mice [3]; FIG. 3D)
reduced: fibrosis lesions (Masson staining) (silicosis mice [1]; FIGS. 7A-7D) | inflammatory infiltration in the lungs (silicosis mice [1]; HE staining)
alleviated: degree of the disease (lesions) (silicosis mice [1]; Masson staining)
effectively alleviate: progression of pulmonary fibrosis (silicosis mice [1])
effectively inhibited: levels of Galectin-1 (transcription and translation) (Galectin-1; OTX008 5 mg/kg intraperitoneal, once every other day for 3 weeks)
